Measurements reported in patent publication US7452717B2, “Compositions and methods for sensitizing and inhibiting growth of human tumor cells” (St. Jude Children's Research Hospital, priority 1998, dated 2008).
Where “and” joins values, the source holds several entries; their conditions need not be identical. Equal values may be shown once.

Experiments:
[1] = test system: COS-7 cells (pCIneo, no enzyme); assay: Esterase assay (o-NPA), COS-7 cells transfected with pCIneo; format: biochemical, monkey; settings: plasmid pCIneo
Procedure: (§1) Esterase activity was determined in whole tissue sonicates using a spectrophotometric assay with o-nitrophenol acetate as a substrate (Potter et al. 1998 Cancer Res. 52:2646-2651; Beaufay et al. 1974 J. Cell Biol. 61:188-200). Protein concentrations were calculated using BioRad protein assay reagent (Hercules, Calif.) with bovine serum albumin as a standard. Enzyme activities were calculated as μmoles of o-nitrophenol produced per minute per mg of total protein.

rabbit liver CE = biological target: T1, rabbit liver CE (Oryctolagus cuniculus, UniProt P12337); assay: Esterase assay (o-NPA), COS-7 cells expressing rabbit CE; format: biochemical; design: To amplify a full length rabbit CE cDNA, oligonucleotide primers RabNTERM; expressed in transfected cells; host or cells: COS-7 (sonicates of transiently transfected cells); settings: plasmid pCIRAB, enzyme rabbit
T1 sequence (P12337 19-565): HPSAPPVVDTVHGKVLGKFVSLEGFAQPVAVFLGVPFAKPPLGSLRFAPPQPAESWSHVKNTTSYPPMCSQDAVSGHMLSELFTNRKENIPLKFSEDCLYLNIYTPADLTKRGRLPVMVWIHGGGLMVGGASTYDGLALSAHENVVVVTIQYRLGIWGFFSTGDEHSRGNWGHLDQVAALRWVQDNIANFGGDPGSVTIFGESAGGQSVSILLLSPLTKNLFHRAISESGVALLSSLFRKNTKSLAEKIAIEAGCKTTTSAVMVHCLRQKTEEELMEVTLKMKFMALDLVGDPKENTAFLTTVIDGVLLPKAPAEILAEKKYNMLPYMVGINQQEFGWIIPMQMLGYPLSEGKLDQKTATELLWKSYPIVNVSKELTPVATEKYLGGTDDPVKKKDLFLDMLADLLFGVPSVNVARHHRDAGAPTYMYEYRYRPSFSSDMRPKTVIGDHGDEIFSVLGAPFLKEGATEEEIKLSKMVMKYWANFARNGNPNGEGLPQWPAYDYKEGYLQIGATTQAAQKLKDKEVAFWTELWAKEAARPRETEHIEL
Procedure: as §1

[2] = biological target: T2, human intestinal CE (hiCE) (Homo sapiens, UniProt O00748); assay: Esterase assay (o-NPA), COS-7 cells expressing hiCE; format: biochemical; settings: plasmid pCIhiCE, media
T2 construct: expressed in transfected cells; host or cells: COS-7 (sonicates of transiently transfected cells)
Procedure: as §1

[3] = test system: CE activity in human biopsy whole tissue sonicates; assay: Esterase assay (o-NPA conversion) with human biopsy extracts; format: biochemical
Procedure: Using human intestinal mucosal biopsy tissue, the conversion of o-NPA to nitrophenol by whole tissue sonicates was monitored. CE activity was identified in both small intestine and colon samples, with activity levels in small intestine being much less than the levels seen with human liver.
Biopsies of human intestine were obtained from the Cooperative Human Tissue Network (Birmingham, Ala.). The samples were ground under liquid nitrogen and the resulting powder sonicated in 50 mM Hepes, pH 7.4, on ice.
as §1

human liver CE (hCE1) = biological target: T3, human liver CE (hCE1) (Homo sapiens, UniProt P23141); assay: Esterase assay (o-NPA), COS-7 cells expressing hCE1; format: biochemical; settings: plasmid pCIHUMCAR, enzyme hCE1
T3 construct: expressed in transfected cells; host or cells: COS-7 (sonicates of transiently transfected cells)
Procedure: as §1

T3 sequence (P23141 18-567): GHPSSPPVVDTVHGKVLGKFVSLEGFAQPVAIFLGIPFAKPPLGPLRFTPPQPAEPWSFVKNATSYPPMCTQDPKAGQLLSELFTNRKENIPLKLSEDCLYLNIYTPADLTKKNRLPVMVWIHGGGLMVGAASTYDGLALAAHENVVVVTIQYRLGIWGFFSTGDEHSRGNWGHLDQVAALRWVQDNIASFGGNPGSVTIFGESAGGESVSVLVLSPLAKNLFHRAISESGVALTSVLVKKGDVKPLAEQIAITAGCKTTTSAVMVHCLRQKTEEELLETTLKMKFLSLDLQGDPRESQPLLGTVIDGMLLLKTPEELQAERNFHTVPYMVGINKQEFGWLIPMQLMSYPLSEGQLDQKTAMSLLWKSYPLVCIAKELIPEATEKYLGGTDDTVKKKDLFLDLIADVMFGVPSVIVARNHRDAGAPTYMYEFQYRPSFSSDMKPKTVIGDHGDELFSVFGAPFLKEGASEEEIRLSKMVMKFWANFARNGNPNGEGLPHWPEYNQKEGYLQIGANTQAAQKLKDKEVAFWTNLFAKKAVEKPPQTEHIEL
T2 sequence (O00748 27-559): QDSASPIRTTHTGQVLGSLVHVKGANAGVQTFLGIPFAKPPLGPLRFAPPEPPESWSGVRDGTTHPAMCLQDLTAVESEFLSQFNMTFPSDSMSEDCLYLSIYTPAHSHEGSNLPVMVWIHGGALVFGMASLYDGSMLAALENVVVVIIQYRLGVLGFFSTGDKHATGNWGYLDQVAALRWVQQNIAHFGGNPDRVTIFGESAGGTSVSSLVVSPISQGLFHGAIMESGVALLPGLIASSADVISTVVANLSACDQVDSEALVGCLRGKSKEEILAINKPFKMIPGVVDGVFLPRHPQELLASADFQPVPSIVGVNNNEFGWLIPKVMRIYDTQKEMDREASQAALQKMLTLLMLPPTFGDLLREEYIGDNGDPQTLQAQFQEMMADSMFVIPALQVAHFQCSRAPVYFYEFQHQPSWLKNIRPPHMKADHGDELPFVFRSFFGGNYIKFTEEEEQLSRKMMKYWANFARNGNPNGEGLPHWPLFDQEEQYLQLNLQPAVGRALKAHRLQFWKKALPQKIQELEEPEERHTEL

CC(=O)Oc1ccccc1[N+](=O)[O-] [o-NPA, o-nitrophenyl acetate]
o-NPA Conversion ([1]; enzyme none): 6.7 ± 0.15 µmol/min/mg | o-NPA Conversion ([1]; media): 13.3 ± 2.7 µmol/min/mg | o-NPA Conversion (rabbit liver CE): 2755.5 ± 271.2 µmol/min/mg | o-NPA Conversion [2]: 30.9 ± 2.8 µmol/min/mg | o-NPA Conversion ([3]; human colon biopsy extract): 46.5 ± 1.2 µmol/min/mg and 86.3 ± 5.2 µmol/min/mg and 75.9 ± 2.6 µmol/min/mg | o-NPA Conversion ([3]; human small intestine biopsy extract): 113.0 ± 9.2 µmol/min/mg and 67.6 ± 4.1 µmol/min/mg and 61.0 ± 2.0 µmol/min/mg | o-NPA Conversion (human liver CE (hCE1)): 4780.3 ± 279.8 µmol/min/mg
